Test results reported in patent publication US8466131B2, “Ligands specific for cannabinoid receptor subtype 2” (University of Pittsburgh—of the Commonwealth System of …, priority 2007, dated 2013).
“Also recorded” adds a separate entry of the source.

Experiments:
CB2 cannabinoid receptor = biological target: T1, CB2 cannabinoid receptor (Mus musculus, UniProt P47936); assay: [3H]-CP-55,940 radiometric competition binding assay, CB2 (mouse spleen membrane); conditions: displacement of 3H-CP 55940, mouse spleen membrane; read-out: CB2 binding affinity (Ki)
T1 construct: from tissue; host or cells: frozen mouse spleen membranes
T1 sequence (P47936 whole entry): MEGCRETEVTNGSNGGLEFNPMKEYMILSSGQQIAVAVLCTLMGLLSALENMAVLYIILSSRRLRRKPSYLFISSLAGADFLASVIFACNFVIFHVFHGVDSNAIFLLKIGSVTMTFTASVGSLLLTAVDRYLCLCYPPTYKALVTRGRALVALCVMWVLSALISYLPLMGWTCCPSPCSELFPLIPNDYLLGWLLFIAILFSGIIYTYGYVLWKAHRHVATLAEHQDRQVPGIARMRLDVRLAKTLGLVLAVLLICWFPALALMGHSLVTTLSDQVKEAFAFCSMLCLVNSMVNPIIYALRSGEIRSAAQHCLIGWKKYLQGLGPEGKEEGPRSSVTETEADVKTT
Procedure: (§1) In-vitro Bio-validation Experiment. To biologically validate the screened hit compounds above, in-vitro [^3H]-radioactive CB ligand binding assays were carried out to determine the CB receptor binding affinity (Ki) of the screened ligands by displacing [^3H]-CP-55,940. The compound of Formula II was obtained from National Cancer Institute (NCI). For each assay, a positive control with a known ligand (SR-141716A for CB1 and SR-144528 for CB2) was run to ensure the reliability of the assay.
For CB2 receptor binding studies, membranes were prepared from frozen mouse spleen. […]
(§2) The experiments were conducted based on reported procedures. […] 1999, 1(3):article 4; Abadji et al., J. Med. Chem. 1994, 37(120:1889-1893; and Abadji et al., J. Neurochem. 1999, 72(5):2032-38. Thus, the competition binding assay was performed using [3H]-CP-55,940 (1 nM) as a radioligand for the CB1 or CB2 cannabinoid receptor (rate brain or mouse spleen membranes), at 30° C. in 96-well microtiter plates, 50 μg of membrane each well re-suspended in 200 μl (final volume) binding buffer (50 mM Tris-HCl, 2.5 mM EGTA, 3 mM MgCl2, 0.1% bovine serum albumin, pH 7.4). The tested compounds were presented at varying concentrations, and the nonspecific binding was determined in the presence of 10 μM CP-55,940 or HU-210. […] The Ki values were calculated by using GraphPad Prism 5.0 (GraphPad Software, Inc.).

CB1 cannabinoid receptor = biological target: T2, CB1 cannabinoid receptor (Rattus norvegicus, UniProt P20272); assay: [3H]-CP-55,940 radiometric competition binding assay, CB1 (rat forebrain membrane); conditions: displacement of 3H-CP 55940, rat forebrain membrane; read-out: CB1 binding affinity (Ki)
T2 construct: from tissue; host or cells: rat forebrain membranes
T2 sequence (P20272 whole entry): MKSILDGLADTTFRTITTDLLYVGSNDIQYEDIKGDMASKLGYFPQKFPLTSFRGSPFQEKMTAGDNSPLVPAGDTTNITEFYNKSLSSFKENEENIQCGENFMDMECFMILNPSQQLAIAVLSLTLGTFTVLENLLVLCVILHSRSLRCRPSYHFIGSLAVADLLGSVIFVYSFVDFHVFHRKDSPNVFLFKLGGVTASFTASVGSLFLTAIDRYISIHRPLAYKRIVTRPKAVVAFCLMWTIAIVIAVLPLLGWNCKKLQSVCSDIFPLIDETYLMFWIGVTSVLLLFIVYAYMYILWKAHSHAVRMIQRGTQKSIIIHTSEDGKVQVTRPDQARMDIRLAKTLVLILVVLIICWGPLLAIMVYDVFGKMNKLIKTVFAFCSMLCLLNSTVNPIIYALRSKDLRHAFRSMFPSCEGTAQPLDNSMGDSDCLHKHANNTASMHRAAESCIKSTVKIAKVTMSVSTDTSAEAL
Procedure: as §1
For CB1 receptor binding studies, rat forebrain membranes were prepared following the reported procedures. […]
as §2

CB2 receptor = biological target: T3, CB2 receptor (Homo sapiens, UniProt P34972); assay: forskolin-stimulated cAMP assay in CB2 receptor transfected CHO-K1 cells; assay type: cell-based; conditions: for effect on CB2 agonist WIN55,212-2 response (cAMP): 1 μM antagonist, with increasing WIN55,212-2, 30 min prior to forskolin (20 μM), FIG. 2; for functional mode of ligand alone (cAMP): ligand alone at increasing concentrations 30 min prior to forskolin (20 μM), FIG. 3
T3 construct: expressed in transfected cells; host or cells: CHO-K1
T3 sequence (P34972 whole entry): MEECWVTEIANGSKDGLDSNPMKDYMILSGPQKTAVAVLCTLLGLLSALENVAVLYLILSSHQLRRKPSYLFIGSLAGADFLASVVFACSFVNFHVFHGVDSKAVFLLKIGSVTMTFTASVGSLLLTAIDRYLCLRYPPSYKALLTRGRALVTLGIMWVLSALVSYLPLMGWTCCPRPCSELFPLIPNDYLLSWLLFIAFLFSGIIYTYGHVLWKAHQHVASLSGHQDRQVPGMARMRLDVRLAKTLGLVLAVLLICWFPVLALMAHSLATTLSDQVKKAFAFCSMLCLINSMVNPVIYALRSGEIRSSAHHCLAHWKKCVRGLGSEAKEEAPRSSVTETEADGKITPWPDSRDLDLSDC
Procedure: FIG. 2. Confluentially growing CB2 receptor transfected […] CHO-K1 cells were stimulated with forskolin (20 μM) and analyzed for cAMP expression after 30 min. The CB2 agonist WIN55, 212-2 was incubated at increasing concentrations 30 min prior to forskolin stimulation alone or in presence of 1 μM of the antagonists AM630 and the compound of Formula II.
FIG. 3. Confluentially growing CB2 receptor transfected […] CHO-K1 cells were stimulated with forskolin (20 μM) and analyzed for cAMP expression after 30 minutes. CB2 ligands were incubated at increasing concentrations 30 minutes prior to forskolin stimulation.
Cell-based Functional Bioassay Studies. […] Subsequently, further receptor biological studies were performed: i) to examine/assess the G-protein effects of the compound of Formula II upon CB2 receptor binding and ii) to test the compound of Formula II for anti-inflammatory effects.

| Compound | Ki (CB2 cannabinoid receptor) [nM] | Ki (CB1 cannabinoid receptor) [nM] | effect on Go signaling (CB2 receptor) | effect on CB2 agonist WIN55,212-2 response (cAMP) (CB2 receptor) | concentration at which compound becomes an agonist (cAMP) (CB2 receptor; FIG. 3, running text) [µM] | concentration at which compound is a weak agonist (cAMP) (CB2 receptor; FIG. 3 legend) [mM] | impact on Gi-proteins (CB2 receptor; at concentrations up to low μM) | functional mode of ligand alone (cAMP) (CB2 receptor) |
| --- | --- | --- | --- | --- | --- | --- | --- | --- |
| N/C(=N\Cc1ccccc1)C(/N=N/c1ccccc1)C(=O)NCc1ccccc1 (centres unmarked) [Formula II] | 31.7 | 4180 | does not affect Go signaling | inhibits the effect of WIN55,212-2; also recorded: antagonist like the known CB2 antagonist AM630 (but weaker) | ~10 | > 7 | does not have an impact on Gi-proteins | weak agonist at high concentration; also recorded: not an inverse agonist |
| COc1ccc(C(=O)c2c(C)n(CCN3CCOCC3)c3cc(I)ccc23)cc1 [AM630, reference compound] |  |  |  | inhibits the effect of WIN55,212-2 |  |  |  | inverse agonist |
| SR144528 [reference compound] |  |  |  |  |  |  |  | inverse agonist |
